Experimental data taken from PubChem BioAssay (NCI).
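Dose response: 5 concentrations. Exposure: 48 h. Format: 96-well plates. Endpoint: linear interpolation; highest concentration if not reached. At the GI50, growth is halved. TGI marks complete inhibition of growth.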

Legend:
Test in all cases: NCI anticancer screen, dose series, 48 h
A549 NSCLC = test system: A549 NSCLC
MDA-MB-435 = test system: MDA-MB-435
786-0 renal = test system: 786-0 renal
NCI-H460 lung = test system: NCI-H460 lung
MCF7 breast = test system: MCF7 breast
SF-295 CNS = test system: SF-295 CNS
OVCAR-5 ovarian = test system: OVCAR-5 ovarian
SK-MEL-28 melanoma = test system: SK-MEL-28 melanoma
U251 CNS = test system: U251 CNS
HL-60(TB) leukemia = test system: HL-60(TB) leukemia
UACC-257 melanoma = test system: UACC-257 melanoma
RPMI-8226 leukemia = test system: RPMI-8226 leukemia
DU-145 prostate = test system: DU-145 prostate
COLO 205 colon = test system: COLO 205 colon
PC-3 prostate = test system: PC-3 prostate
HCT-116 colon = test system: HCT-116 colon
OVCAR-8 ovarian = test system: OVCAR-8 ovarian
HCT-15 colon = test system: HCT-15 colon
SF-539 CNS = test system: SF-539 CNS
IGROV1 ovarian = test system: IGROV1 ovarian
EKVX NSCLC = test system: EKVX NSCLC
OVCAR-4 ovarian = test system: OVCAR-4 ovarian
OVCAR-3 ovarian = test system: OVCAR-3 ovarian
TK-10 renal = test system: TK-10 renal
HOP-92 NSCLC = test system: HOP-92 NSCLC
T-47D breast = test system: T-47D breast
UO-31 renal = test system: UO-31 renal
UACC-62 melanoma = test system: UACC-62 melanoma
HS 578T breast = test system: HS 578T breast
LOX IMVI melanoma = test system: LOX IMVI melanoma
HOP-62 NSCLC = test system: HOP-62 NSCLC
CAKI-1 renal = test system: CAKI-1 renal
SNB-19 CNS = test system: SNB-19 CNS
SK-MEL-5 melanoma = test system: SK-MEL-5 melanoma
BT-549 breast = test system: BT-549 breast
SK-OV-3 ovarian = test system: SK-OV-3 ovarian
M14 melanoma = test system: M14 melanoma
NCI-H23 lung = test system: NCI-H23 lung
K-562 leukemia = test system: K-562 leukemia
KM12 colon = test system: KM12 colon
SR leukemia = test system: SR leukemia
MDA-MB-231 breast = test system: MDA-MB-231 breast
SW-620 colon = test system: SW-620 colon
SK-MEL-2 melanoma = test system: SK-MEL-2 melanoma
SF-268 CNS = test system: SF-268 CNS
NCI/ADR-RES ovarian = test system: NCI/ADR-RES ovarian
MOLT-4 leukemia = test system: MOLT-4 leukemia
HT29 colon = test system: HT29 colon
A498 renal = test system: A498 renal
ACHN renal = test system: ACHN renal
MALME-3M melanoma = test system: MALME-3M melanoma
NCI-H522 lung = test system: NCI-H522 lung
SN12C renal = test system: SN12C renal
CCRF-CEM leukemia = test system: CCRF-CEM leukemia
NCI-H226 lung = test system: NCI-H226 lung
RXF 393 renal = test system: RXF 393 renal
SNB-75 CNS = test system: SNB-75 CNS
HCC-2998 colon = test system: HCC-2998 colon

## CN(/N=N/c1nc(OCc2ccccc2)c2[nH]cnc2n1)C(=O)Oc1ccc([N+](=O)[O-])cc1
A549 NSCLC
  GI50: 12 µM
  TGI: 31.6 µM
MDA-MB-435
  GI50: 12.4 µM
  TGI: 39.8 µM
786-0 renal
  GI50: 8.76 µM
  TGI: 23.7 µM
NCI-H460 lung
  GI50: 6.71 µM
  TGI: 31.3 µM
MCF7 breast
  GI50: 12.4 µM
  TGI: > 50 µM
SF-295 CNS
  GI50: 11.1 µM
  TGI: 33.6 µM
OVCAR-5 ovarian
  GI50: 11.5 µM
  TGI: > 50 µM
SK-MEL-28 melanoma
  GI50: 12.4 µM
  TGI: > 50 µM
U251 CNS
  GI50: 7.51 µM
  TGI: 15.3 µM
HL-60(TB) leukemia
  GI50: 11.9 µM
  TGI: > 50 µM
UACC-257 melanoma
  GI50: 39 µM
  TGI: > 50 µM
RPMI-8226 leukemia
  GI50: 9.12 µM
  TGI: > 50 µM
DU-145 prostate
  GI50: 9.02 µM
  TGI: 19.5 µM
COLO 205 colon
  GI50: 10.2 µM
  TGI: 29.7 µM
PC-3 prostate
  GI50: 10.8 µM
  TGI: 27.1 µM
HCT-116 colon
  GI50: 8.68 µM
  TGI: 16 µM
OVCAR-8 ovarian
  GI50: 9.81 µM
  TGI: 26.3 µM
HCT-15 colon
  GI50: 8.9 µM
  TGI: 20 µM
SF-539 CNS
  GI50: 9.88 µM
  TGI: 28.8 µM
IGROV1 ovarian
  GI50: 12.2 µM
  TGI: 31.2 µM
EKVX NSCLC
  GI50: 11.5 µM
  TGI: 35.9 µM
OVCAR-4 ovarian
  GI50: 22.8 µM
  TGI: > 50 µM
OVCAR-3 ovarian
  GI50: 9.49 µM
  TGI: 24.4 µM
TK-10 renal
  GI50: 12 µM
  TGI: 34 µM
HOP-92 NSCLC
  GI50: 7.17 µM
  TGI: 26.6 µM
T-47D breast
  GI50: 14.2 µM
  TGI: 32.7 µM
UO-31 renal
  GI50: 6.58 µM
  TGI: 13.9 µM
UACC-62 melanoma
  GI50: 7.5 µM
  TGI: 15.2 µM
HS 578T breast
  GI50: 8.61 µM
  TGI: 29.6 µM
LOX IMVI melanoma
  GI50: 1.14 µM
  TGI: 10.8 µM
HOP-62 NSCLC
  GI50: 28.8 µM
  TGI: > 50 µM
CAKI-1 renal
  GI50: 10.9 µM
  TGI: 35.4 µM
SNB-19 CNS
  GI50: 9.6 µM
  TGI: 27.9 µM
SK-MEL-5 melanoma
  GI50: 6.89 µM
  TGI: 16.3 µM
BT-549 breast
  GI50: 7.35 µM
  TGI: 20.4 µM
SK-OV-3 ovarian
  GI50: 10.4 µM
  TGI: 28.6 µM
M14 melanoma
  GI50: 8.87 µM
  TGI: 18.4 µM
NCI-H23 lung
  GI50: 8.44 µM
  TGI: 16.4 µM
K-562 leukemia
  GI50: 11.9 µM
  TGI: > 50 µM
KM12 colon
  GI50: 8.49 µM
  TGI: 18.7 µM
SR leukemia
  GI50: 26.1 µM
  TGI: > 50 µM
MDA-MB-231 breast
  GI50: 5.78 µM
  TGI: 18.6 µM
SW-620 colon
  GI50: 9.02 µM
  TGI: 26.1 µM
SK-MEL-2 melanoma
  GI50: 11.9 µM
  TGI: 28.5 µM
SF-268 CNS
  GI50: 9.44 µM
  TGI: 29.5 µM

## c1ccc(CNc2nc(Nc3ccccc3)nc3ccccc23)cc1
A549 NSCLC
  GI50: 1.84 µM
  TGI: 5.35 µM
NCI/ADR-RES ovarian
  GI50: 1.99 µM
  TGI: 5 µM
MOLT-4 leukemia
  GI50: 2.21 µM
  TGI: 5.37 µM
MDA-MB-435
  GI50: 1.72 µM
  TGI: 3.67 µM
786-0 renal
  GI50: 1.66 µM
  TGI: 3.12 µM
SF-295 CNS
  GI50: 1.73 µM
  TGI: 3.77 µM
OVCAR-5 ovarian
  GI50: 1.86 µM
  TGI: 4.19 µM
HT29 colon
  GI50: 2.06 µM
  TGI: 4.88 µM
SK-MEL-28 melanoma
  GI50: 1.7 µM
  TGI: 3.24 µM
A498 renal
  GI50: 1.29 µM
  TGI: 5.7 µM
U251 CNS
  GI50: 1.52 µM
  TGI: 2.91 µM
UACC-257 melanoma
  GI50: 1.78 µM
  TGI: 3.78 µM
RPMI-8226 leukemia
  GI50: 1.41 µM
  TGI: 4.42 µM
DU-145 prostate
  GI50: 3.06 µM
  TGI: 10.7 µM
ACHN renal
  GI50: 1.87 µM
  TGI: 4.16 µM
MALME-3M melanoma
  GI50: 1.7 µM
  TGI: 3.38 µM
COLO 205 colon
  GI50: 1.89 µM
  TGI: 3.77 µM
PC-3 prostate
  GI50: 1.66 µM
  TGI: 4.9 µM
HCT-116 colon
  GI50: 1.71 µM
  TGI: 3.3 µM
OVCAR-8 ovarian
  GI50: 1.99 µM
  TGI: 5.09 µM
SF-539 CNS
  GI50: 1.69 µM
  TGI: 3.14 µM
IGROV1 ovarian
  GI50: 2.59 µM
  TGI: 7.44 µM
OVCAR-4 ovarian
  GI50: 2.05 µM
  TGI: 8.04 µM
OVCAR-3 ovarian
  GI50: 1.77 µM
  TGI: 3.53 µM
TK-10 renal
  GI50: 2.02 µM
  TGI: 4.53 µM
HOP-92 NSCLC
  GI50: 1.45 µM
  TGI: 3.05 µM
T-47D breast
  GI50: 1.72 µM
  TGI: 4.46 µM
UO-31 renal
  GI50: 2.1 µM
  TGI: 8.53 µM
UACC-62 melanoma
  GI50: 1.48 µM
  TGI: 2.95 µM
HS 578T breast
  GI50: 2.17 µM
  TGI: 6.01 µM
LOX IMVI melanoma
  GI50: 1.88 µM
  TGI: 3.4 µM
HOP-62 NSCLC
  GI50: 2.3 µM
  TGI: 5.17 µM
CAKI-1 renal
  GI50: 2.04 µM
  TGI: 5.18 µM
SNB-19 CNS
  GI50: 3.16 µM
  TGI: 14.6 µM
SK-MEL-5 melanoma
  GI50: 1.41 µM
  TGI: 2.76 µM
BT-549 breast
  GI50: 1.9 µM
  TGI: 3.97 µM
SK-OV-3 ovarian
  GI50: 3.26 µM
  TGI: 9.51 µM
NCI-H522 lung
  GI50: 1.45 µM
  TGI: 3.23 µM
M14 melanoma
  GI50: 1.83 µM
  TGI: 3.6 µM
SN12C renal
  GI50: 1.73 µM
  TGI: 3.7 µM
CCRF-CEM leukemia
  GI50: 2.13 µM
  TGI: 6 µM
NCI-H226 lung
  GI50: 2.26 µM
  TGI: 11.6 µM
NCI-H23 lung
  GI50: 2.17 µM
  TGI: 9.25 µM
KM12 colon
  GI50: 2.92 µM
  TGI: 10.1 µM
SR leukemia
  GI50: 2.28 µM
  TGI: 6.07 µM
RXF 393 renal
  GI50: 1.65 µM
  TGI: 3.2 µM
SNB-75 CNS
  GI50: 1.93 µM
  TGI: 6.5 µM
MDA-MB-231 breast
  GI50: 1.58 µM
  TGI: 3.12 µM
HCC-2998 colon
  GI50: 1.99 µM
  TGI: 4.43 µM
SF-268 CNS
  GI50: 3.01 µM
  TGI: 9.3 µM
